≈ marks a conversion by molar mass, not a printed value. Where two headings read alike, the source gives them in different places. Where a SMILES comes first, the peptide text is derived from it. Bridges are numbered along the chain shown (N, C = ends). Side-chain parts run from the residue outwards. [ ]: non-standard residue; d: D form. The star is where a group is joined. Palmitoyl(16-(5-tetrazolyl)) = O=C(CCCCCCCCCCCCCCCc1nnn[nH]1)*; Hyp = O=C(O)[C@@H]1C[C@@H](O)CN1; NTA = O=C(O)CN(CC(=O)O)CC(=O)*; Nle = CCCC[C@H](N)C(=O)O; Dap = NC[C@H](N)C(=O)O; AEEA = NCCOCCOCC(=O)O
Assays:
[1] = Solubility data of compounds in water over the pH range; assay type: physicochemical; settings: read-out: Conc (solubility in water)
ad libitum fed rat model = assay: Assay (I) efficacy testing on appetite, ad libitum fed rat model; assay type: in vivo; settings: dosing 1 mg/kg
Experimental: Assay (I)—Experimental protocol for efficacy testing on appetite with MC4 analogues, using an ad libitum fed rat model. TAC:SPRD @mol rats or Wistar rats from M&B Breeding and Research Centre A/S, Denmark are used for the experiments. The rats have a body weight 200-250 g at the start of experiment. The rats arrive at least 10-14 days before start of experiment with a body weight of 180-200 g. Each dose of compound is tested in a group of 8 rats. […] When the animals arrive they are housed individually in a reversed light/dark phase (lights off 7:30 am, lights on 7:30 pm), meaning that lights are off during daytime and on during nighttime. […] During this period the animals are handled at least 3 times. The experiment is conducted in the rats' home cages. Immediately before dosing the rats are randomised to the various treatment groups (n 8) by body weight. They are dosed according to body weight at between 7:00 am and 7:45 am, with a 1-3 mg/kg solution administered intraperitoneally (ip), orally (po) or subcutaneously (sc). The time of dosing is recorded for each group. After dosing, the rats are returned to their home cages, where they then have access to food and water. […] At the end of the experimental session, the animals are euthanised. The individual data are recorded in Microsoft excel sheets. Outliers are excluded after applying the Grubbs statistical evaluation test for outliers, and the result is presented graphically using the GraphPad Prism program.

MC1 receptor = molecular target: T1, MC1 receptor (Homo sapiens, UniProt Q01726); assay: Assay (IV) Melanocortin Receptor 1 (MC1) binding assay; settings: 125NDP-α-MSH binding, BHK cell membranes; read-out: Assay (IV) MC1 Ki
T1 construct: expressed in transfected cells
T1 sequence (Q01726 whole entry): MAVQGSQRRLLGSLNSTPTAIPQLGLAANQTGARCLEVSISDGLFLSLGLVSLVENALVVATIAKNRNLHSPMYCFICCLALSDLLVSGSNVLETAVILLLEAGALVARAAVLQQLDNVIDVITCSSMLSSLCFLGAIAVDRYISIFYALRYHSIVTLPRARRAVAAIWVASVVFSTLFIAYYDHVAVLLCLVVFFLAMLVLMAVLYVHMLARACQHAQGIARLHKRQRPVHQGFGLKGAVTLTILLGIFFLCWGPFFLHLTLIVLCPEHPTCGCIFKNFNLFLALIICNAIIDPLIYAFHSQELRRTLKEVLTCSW
How it was run: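 Competition binding used BHK cell membranes stably expressing MC1 (25 μg/ml) with 22 pM final ^125NDP-α-MSH in 25 mM HEPES pH 7.4, CaCl2, MgSO4, EDTA, 0.1% HSA (or ovalbumin), 0.005% Tween 20. After 90 min at 30° C., bound radioligand was filtered and counted, with binding curves fitted by non-linear regression.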

human MC4 receptor = molecular target: T2, human MC4 receptor (Homo sapiens, UniProt P32245); assay: Assay (V) Melanocortin Receptor 4 (MC4) binding assay; settings: 125NDP-α-MSH binding, BHK cell membranes; read-out: Assay (V) MC4 [Ki]
T2 construct: expressed in transfected cells
T2 sequence (P32245 whole entry): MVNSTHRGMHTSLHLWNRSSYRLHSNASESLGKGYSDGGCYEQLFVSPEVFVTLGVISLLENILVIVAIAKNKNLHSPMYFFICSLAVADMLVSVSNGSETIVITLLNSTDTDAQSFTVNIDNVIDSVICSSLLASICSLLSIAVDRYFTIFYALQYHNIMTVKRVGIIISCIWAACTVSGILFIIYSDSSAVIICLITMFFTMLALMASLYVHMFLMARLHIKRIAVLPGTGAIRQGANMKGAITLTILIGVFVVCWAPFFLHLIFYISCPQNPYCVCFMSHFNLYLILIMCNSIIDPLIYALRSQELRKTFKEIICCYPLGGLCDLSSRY
How it was run: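 BHK membranes stably expressing human MC4 receptor were incubated with ^125NDP-α-MSH (≈79 pM final) and compound for 2 h at 25 °C, pH 7.0 HEPES buffer with HSA or ovalbumin. Filter-bound radioactivity was gamma counted. Binding curves were fitted by non-linear regression.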

CCCC[C@H](NC(=O)[C@H](CNC(=O)[C@H](Cc1c[nH]cn1)NC(=O)[C@H](CCC(N)=O)NC(=O)[C@H](CO)NC(=O)CNC(=O)COCCOCCNC(=O)CCCCCCCCCCCCCCCc1nnn[nH]1)NC(=O)CN(CC(=O)O)CC(=O)O)C(=O)N[C@H]1CCC(=O)NCCCC[C@@H](C(N)=O)NC(=O)[C@H](Cc2c[nH]c3ccccc23)NC(=O)[C@H](CCCNC(=N)N)NC(=O)[C@@H](Cc2ccccc2)NC(=O)[C@@H]2C[C@@H](O)CN2C1=O [Example 2, (2-{2-[16-(Tetrazol-5-yl)hexadecanoylamino]ethoxy}ethoxy)acetyl-Gly-Ser-Gln-His-β-Dap(BCMA)-Nle-c[Glu-Hyp-D-Phe-Arg-Trp-Lys]-NH2] ({NTA}-[Dap]([His-Gln-Ser-Gly-AEEA-Palmitoyl(16-(5-tetrazolyl))])[Nle]E[Hyp][dF]RWK-NH2; lactam 3-8)
solubility at 3 days ([1]; pH 3.02, pH 3.02): 320 µM (≈ 670 µg/mL) | solubility at 3 days ([1]; pH 3.84, pH 3.84): 421 µM (≈ 881 µg/mL) | solubility at 3 days ([1]; pH 4.3, pH 4.3): 216 µM (≈ 452 µg/mL) | solubility at 3 days ([1]; pH 4.64, pH 4.64): 49 µM (≈ 103 µg/mL) | solubility at 3 days ([1]; pH 5.22, pH 5.22): 13 µM (≈ 27.2 µg/mL) | solubility at 3 days ([1]; pH 6.55, pH 6.55): 14 µM (≈ 29.3 µg/mL) | solubility at 3 days ([1]; pH 7.2, pH 7.2): 122 µM (≈ 255 µg/mL) | solubility at 3 days ([1]; pH 7.36, pH 7.36): 251 µM (≈ 525 µg/mL) | solubility at 3 days ([1]; pH 7.53, pH 7.53): 320 µM (≈ 670 µg/mL) | solubility at 3 days ([1]; pH 7.81, pH 7.81): 77 µM (≈ 161 µg/mL) | Food consumption (% of vehicle) 24 h (ad libitum fed rat model; 24 h): 60 % of vehicle | Food consumption (% of vehicle) 48 h (ad libitum fed rat model; 48 h): 71 % of vehicle | Ki (MC1 receptor): 5570 nM | Ki (human MC4 receptor): 3.43 nM

From patent publication US20100173835A1, “Peptides for Treatment of Obesity” (Novo Nordisk A/S, priority 2008, published 2010)
